Common to all, as to experiment: Biochemical Assay
In test [1] the target is Lysine-specific demethylase 5A (Homo sapiens, UniProt P29375).
Test [2] deals with T1, Lysine-specific demethylase 4C (Homo sapiens, UniProt Q9H3R0).
T1 sequence (Q9H3R0 whole entry): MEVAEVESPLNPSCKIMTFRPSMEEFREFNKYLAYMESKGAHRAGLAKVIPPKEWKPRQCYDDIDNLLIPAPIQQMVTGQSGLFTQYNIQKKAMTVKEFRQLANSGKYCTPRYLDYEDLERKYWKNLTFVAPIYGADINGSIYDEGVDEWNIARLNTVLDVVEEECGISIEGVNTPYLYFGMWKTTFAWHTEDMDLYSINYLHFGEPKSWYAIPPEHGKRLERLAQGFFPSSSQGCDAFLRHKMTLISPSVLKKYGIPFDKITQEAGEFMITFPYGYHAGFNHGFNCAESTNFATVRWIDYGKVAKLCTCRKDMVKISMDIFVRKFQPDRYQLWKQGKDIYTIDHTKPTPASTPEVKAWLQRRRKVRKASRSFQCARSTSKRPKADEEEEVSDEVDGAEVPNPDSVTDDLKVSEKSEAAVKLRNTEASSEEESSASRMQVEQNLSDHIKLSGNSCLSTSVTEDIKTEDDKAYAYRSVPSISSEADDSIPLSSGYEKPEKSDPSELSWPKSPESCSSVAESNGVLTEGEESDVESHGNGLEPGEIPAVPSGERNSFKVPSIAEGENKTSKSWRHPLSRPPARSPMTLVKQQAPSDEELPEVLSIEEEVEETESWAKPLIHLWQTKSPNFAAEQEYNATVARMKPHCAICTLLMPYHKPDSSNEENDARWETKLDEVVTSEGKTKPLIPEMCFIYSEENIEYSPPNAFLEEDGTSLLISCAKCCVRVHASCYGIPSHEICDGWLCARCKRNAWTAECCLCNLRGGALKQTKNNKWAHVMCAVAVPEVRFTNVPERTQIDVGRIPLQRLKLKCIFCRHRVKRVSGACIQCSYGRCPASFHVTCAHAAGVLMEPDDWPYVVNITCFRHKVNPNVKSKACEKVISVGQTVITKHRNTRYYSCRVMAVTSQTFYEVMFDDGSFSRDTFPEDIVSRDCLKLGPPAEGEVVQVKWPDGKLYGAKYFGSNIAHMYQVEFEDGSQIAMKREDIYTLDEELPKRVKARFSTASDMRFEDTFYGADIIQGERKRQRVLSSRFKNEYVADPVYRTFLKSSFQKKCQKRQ

Test [3] addresses Lysine-specific demethylase 5B (Homo sapiens, UniProt Q9UGL1).

Chain of Lysine-specific demethylase 5A (P29375 whole entry): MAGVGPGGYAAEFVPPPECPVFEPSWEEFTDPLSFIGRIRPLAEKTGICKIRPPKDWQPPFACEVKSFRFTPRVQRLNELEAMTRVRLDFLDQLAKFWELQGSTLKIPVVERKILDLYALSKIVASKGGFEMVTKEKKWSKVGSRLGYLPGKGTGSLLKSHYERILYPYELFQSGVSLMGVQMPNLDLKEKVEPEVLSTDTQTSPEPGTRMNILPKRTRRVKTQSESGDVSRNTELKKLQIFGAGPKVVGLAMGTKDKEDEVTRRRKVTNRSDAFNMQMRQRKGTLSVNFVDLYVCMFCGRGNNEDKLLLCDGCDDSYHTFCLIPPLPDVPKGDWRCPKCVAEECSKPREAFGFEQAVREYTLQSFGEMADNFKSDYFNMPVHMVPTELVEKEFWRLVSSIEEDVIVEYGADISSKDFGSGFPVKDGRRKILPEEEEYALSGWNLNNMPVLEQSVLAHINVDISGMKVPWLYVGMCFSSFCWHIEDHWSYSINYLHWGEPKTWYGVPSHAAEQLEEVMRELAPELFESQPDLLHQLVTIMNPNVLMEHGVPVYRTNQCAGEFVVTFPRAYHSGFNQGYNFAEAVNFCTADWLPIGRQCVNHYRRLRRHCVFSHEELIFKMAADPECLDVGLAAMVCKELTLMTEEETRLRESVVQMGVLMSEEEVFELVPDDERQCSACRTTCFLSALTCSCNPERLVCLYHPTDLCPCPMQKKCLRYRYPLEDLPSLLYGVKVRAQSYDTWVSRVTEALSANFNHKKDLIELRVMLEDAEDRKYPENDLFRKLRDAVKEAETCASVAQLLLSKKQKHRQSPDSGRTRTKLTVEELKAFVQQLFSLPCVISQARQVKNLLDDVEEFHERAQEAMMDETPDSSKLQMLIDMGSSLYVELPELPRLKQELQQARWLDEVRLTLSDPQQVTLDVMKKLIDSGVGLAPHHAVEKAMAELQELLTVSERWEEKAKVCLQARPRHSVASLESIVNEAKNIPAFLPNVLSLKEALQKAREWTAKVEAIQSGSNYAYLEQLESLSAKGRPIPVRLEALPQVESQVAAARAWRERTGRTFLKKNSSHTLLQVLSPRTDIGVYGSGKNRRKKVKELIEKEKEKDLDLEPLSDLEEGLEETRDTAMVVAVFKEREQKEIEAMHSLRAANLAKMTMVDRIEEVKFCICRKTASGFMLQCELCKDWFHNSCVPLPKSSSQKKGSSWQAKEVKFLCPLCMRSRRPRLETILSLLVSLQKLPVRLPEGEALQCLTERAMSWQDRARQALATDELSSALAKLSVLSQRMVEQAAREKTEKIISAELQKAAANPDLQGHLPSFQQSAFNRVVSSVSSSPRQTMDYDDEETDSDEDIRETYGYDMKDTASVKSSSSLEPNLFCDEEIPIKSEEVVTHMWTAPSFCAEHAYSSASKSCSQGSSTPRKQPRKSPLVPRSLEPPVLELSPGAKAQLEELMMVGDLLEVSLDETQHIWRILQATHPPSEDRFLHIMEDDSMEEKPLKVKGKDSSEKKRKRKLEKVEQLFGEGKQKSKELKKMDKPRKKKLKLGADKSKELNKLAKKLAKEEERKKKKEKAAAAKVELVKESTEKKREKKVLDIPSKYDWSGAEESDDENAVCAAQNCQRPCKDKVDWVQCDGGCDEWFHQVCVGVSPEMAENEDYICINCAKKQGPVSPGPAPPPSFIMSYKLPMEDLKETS
Chain of Lysine-specific demethylase 5B (Q9UGL1 whole entry): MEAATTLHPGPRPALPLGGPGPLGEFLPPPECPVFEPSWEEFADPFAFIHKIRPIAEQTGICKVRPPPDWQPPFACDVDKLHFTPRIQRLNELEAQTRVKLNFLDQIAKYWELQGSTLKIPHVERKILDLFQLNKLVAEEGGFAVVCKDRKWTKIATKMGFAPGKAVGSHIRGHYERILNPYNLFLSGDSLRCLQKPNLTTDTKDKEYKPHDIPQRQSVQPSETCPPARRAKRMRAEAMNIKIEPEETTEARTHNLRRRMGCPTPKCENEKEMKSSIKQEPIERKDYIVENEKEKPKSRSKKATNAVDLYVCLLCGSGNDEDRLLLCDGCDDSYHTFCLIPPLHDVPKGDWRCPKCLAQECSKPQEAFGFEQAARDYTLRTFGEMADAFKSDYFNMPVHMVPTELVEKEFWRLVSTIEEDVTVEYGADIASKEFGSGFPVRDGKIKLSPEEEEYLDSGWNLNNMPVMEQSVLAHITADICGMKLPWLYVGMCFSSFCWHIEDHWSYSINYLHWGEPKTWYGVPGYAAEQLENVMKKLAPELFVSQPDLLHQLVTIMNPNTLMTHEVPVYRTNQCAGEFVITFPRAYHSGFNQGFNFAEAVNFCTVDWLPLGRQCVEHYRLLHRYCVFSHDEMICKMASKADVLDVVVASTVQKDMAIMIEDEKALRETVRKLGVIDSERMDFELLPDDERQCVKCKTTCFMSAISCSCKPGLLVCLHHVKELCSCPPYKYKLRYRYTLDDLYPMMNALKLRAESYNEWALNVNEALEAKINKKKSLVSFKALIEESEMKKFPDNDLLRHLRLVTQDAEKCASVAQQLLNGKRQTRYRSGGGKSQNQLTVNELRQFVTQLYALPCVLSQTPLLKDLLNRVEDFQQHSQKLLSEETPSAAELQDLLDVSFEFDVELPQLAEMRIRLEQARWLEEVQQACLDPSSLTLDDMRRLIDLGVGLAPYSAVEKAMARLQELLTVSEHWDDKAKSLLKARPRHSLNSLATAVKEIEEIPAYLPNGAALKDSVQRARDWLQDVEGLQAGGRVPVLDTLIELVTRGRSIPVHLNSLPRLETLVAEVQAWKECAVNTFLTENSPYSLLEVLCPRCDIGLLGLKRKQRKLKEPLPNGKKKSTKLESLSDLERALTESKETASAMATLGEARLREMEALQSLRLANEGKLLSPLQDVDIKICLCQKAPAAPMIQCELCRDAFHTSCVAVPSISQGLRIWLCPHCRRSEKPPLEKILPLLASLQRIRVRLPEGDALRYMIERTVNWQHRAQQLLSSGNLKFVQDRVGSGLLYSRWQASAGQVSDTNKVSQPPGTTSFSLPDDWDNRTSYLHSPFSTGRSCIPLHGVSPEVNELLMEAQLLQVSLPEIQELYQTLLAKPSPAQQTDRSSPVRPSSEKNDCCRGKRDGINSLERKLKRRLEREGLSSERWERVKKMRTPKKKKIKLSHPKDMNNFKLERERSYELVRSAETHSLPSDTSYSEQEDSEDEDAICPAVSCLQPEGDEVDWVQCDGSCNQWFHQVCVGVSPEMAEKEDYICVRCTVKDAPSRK

Broadly, the IC50 is the concentration that inhibits the measured activity by half. A lower IC50 goes with higher potency. For the compound `CC(C)c1c[nH]c2c(C#N)cnn2c1=O` [US20240139197, Compound 7], in test [1], the IC50 was 170 nM.
For `Bc1cc(Cl)ccc1COc1ccnn1-c1cc(C(=O)O)ccn1` [US20240139197, Compound 21], the IC50 came out at 54 nM in test [2], 14 nM in test [1] and 4 nM in test [3].
In the case of `COc1cc(Cl)ccc1COc1ccnn1-c1cc(C(=O)O)ccn1` [US20240139197, Compound 34], the IC50 in test [3] was found to be 3 nM.
The compound `CCOc1cc(Cl)ccc1COc1ccnn1-c1cc(C(=O)O)ccn1` [US20240139197, Compound 35] gave an IC50 in test [1] of 18 nM.
With `O=C(O)c1ccnc(-n2nccc2OCc2ccc(Cl)cc2OCC2CC2)c1` [US20240139197, Compound 36], the IC50 worked out at 25 nM in test [1] and 36 nM in test [3].

Source of the values: BindingDB's records for patent US20240139197 (The Wistar Institute of Anatomy and Biology, 2024).
